In US20260217708A1, “FUSED BENZAZEPINE DERIVATIVES FOR USE IN THE TREATMENT OF CANCER AND EPILEPSY” (UCB BIOPHARMA SRL, priority 2023, published 2026):

What was measured:
system Xc^− [1] = molecular target: T1, system Xc^− (Homo sapiens, UniProt Q9UPY5); experiment: Cystine-induced glutamate release assay; assay type: cell-based; set-up: endogenous in cells; host or cells: H4 cells; conditions: H4 cells, sodium-free HEPES buffer, 50 μM L-Cystine, 2 hours, Amplex Red glutamate readout; read-out: pIC50 Cystine-induced glutamate release assay (converted)
T1 sequence (Q9UPY5 1-501): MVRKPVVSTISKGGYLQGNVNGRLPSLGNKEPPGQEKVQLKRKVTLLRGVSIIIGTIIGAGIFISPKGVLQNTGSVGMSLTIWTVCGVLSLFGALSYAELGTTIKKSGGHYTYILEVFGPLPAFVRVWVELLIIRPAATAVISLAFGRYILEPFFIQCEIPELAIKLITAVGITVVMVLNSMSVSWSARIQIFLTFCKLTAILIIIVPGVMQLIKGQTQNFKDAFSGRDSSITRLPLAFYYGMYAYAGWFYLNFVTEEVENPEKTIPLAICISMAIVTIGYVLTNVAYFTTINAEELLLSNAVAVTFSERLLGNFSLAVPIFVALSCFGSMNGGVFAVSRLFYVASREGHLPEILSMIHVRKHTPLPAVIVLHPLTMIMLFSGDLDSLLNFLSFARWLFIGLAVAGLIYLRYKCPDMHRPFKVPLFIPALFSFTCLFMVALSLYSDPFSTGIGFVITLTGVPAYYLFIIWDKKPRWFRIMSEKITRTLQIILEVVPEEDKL
T1 sequence (P08195 1-529 partner): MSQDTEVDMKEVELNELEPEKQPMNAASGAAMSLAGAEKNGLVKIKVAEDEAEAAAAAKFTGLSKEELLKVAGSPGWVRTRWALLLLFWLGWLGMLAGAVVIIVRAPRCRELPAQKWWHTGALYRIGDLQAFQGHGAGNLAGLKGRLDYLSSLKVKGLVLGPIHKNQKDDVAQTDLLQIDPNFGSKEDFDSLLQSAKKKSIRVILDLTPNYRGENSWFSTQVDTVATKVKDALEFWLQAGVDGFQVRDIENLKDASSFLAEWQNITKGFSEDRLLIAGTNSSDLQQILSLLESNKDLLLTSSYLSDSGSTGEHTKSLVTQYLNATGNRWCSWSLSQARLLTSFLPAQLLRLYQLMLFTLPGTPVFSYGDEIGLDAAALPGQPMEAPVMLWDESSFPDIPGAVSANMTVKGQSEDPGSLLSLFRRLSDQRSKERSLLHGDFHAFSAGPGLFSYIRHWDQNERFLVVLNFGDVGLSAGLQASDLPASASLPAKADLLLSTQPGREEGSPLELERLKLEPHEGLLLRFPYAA
Outline: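 IC50 (reported as pIC50) normalized to DMSO 1% and Erastin 50 μM controls, from Amplex Red fluorescence of glutamate exported into supernatant. H4 cells were washed into sodium-free buffer to exclude EAAT transport, then given compound with 50 μM L-cystine for 2 h in the incubator.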

system Xc^− [2] = molecular target: T1, system Xc^−; experiment: [^14C]L-Cystine uptake assay; assay type: cell-based; set-up: endogenous in cells; host or cells: H4 cells; conditions: H4 cells, sodium-free HEPES buffer, 0.5 μM L-[14C]Cystine and 4.5 μM L-Cystine, 1 hour at 37° C.; read-out: pIC50 [^14C] L-Cystine uptake assay (converted)
Outline: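 Compound effect is given as pIC50, taken between controls of 1% DMSO and 50 μM Erastin. Human H4 cells were pretreated 15 min with compound in sodium-free buffer, then took up 0.5 μM [14C]cystine with 4.5 μM cold cystine for 1 hour at 37° C, read by scintillation proximity counting.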

| Compound | IC50 (system Xc^− [1]) | IC50 (system Xc^− [2]) |
| --- | --- | --- |
| COc1cc2c(c(F)n1)-c1cccnc1CC(=O)N2CC(=O)Nc1ccc(C(F)(F)F)cc1 [#124, 2-(3-fluoro-5-methoxy-9-oxo-4,8,12-triazatricyclo[9.4.0.0^2,7]pentadeca-1(11),2,4,6,12,14-hexaen-8-yl)-N-[4-(trifluoromethyl)phenyl]acetamide] | 39.8 to 100 nM | 15.8 to 39.8 nM |
| CCn1c(C)cc2c(c1=O)-c1cccnc1CC(=O)N2CC(=O)Nc1ccc(C(F)(F)F)cc1 [#125, 2-(4-ethyl-5-methyl-3,9-dioxo-4,8,12-triazatricyclo[9.4.0.0^2,7]pentadeca-1(15),2(7),5,11,13-pentaen-8-yl)-N-[4-(trifluoromethyl)phenyl]acetamide] | 39.8 to 100 nM | 39.8 to 100 nM |
| Cc1cc2c(c(Cl)n1)-c1cccnc1N(C)C(=O)N2CC(=O)Nc1ccc(C(F)(F)F)cc1 [#126, 2-(3-chloro-5,10-dimethyl-9-oxo-4,8,10,12-tetrazatricyclo[9.4.0.0^2,7]pentadeca-1(11),2,4,6,12,14-hexaen-8-yl)-N-[4-(trifluoromethyl)phenyl]acetamide] | 15.8 to 39.8 nM | < 15.8 nM |
| Cc1cc2c(c(C#N)n1)-c1cc(F)ccc1CC(=O)N2CC(=O)Nc1ccc(C(F)(F)F)cc1 [#127, 2-(1-cyano-10-fluoro-3-methyl-6-oxo-7H-pyrido[4,3-d][3]benzazepin-5-yl)-N-[4-(trifluoromethyl)phenyl]acetamide] | 39.8 to 100 nM | < 15.8 nM |
| Cc1cc2c(c(F)n1)-c1cccnc1C(C)C(=O)N2CC(=O)Nc1ccc(C)c(F)c1 (stereo not drawn) [#128, 2-(3-fluoro-5,10-dimethyl-9-oxo-4,8,12-triazatricyclo[9.4.0.0^2,7]pentadeca-1(11),2(7),3,5,12,14-hexaen-8-yl)-N-(3-fluoro-4-methyl-phenyl)acetamide] | 15.8 to 39.8 nM | < 15.8 nM |
| Cc1cc2c(c(F)n1)-c1cccnc1C(C)C(=O)N2CC(=O)Nc1ccc2c(cnn2C)c1 (stereo not drawn) [#129, 2-(3-fluoro-5,10-dimethyl-9-oxo-4,8,12-triazatricyclo[9.4.0.0^2,7]pentadeca-1(11),2(7),3,5,12,14-hexaen-8-yl)-N-(1-methylindazol-5-yl)acetamide] | 39.8 to 100 nM | 39.8 to 100 nM |
| Cc1cc2c(c(F)n1)-c1cccnc1C(C)C(=O)N2CC(=O)Nc1ccc(F)c(F)c1 (stereo not drawn) [#130, N-(3,4-difluorophenyl)-2-(3-fluoro-5,10-dimethyl-9-oxo-4,8,12-triazatricyclo[9.4.0.0^2,7]pentadeca-1(11),2(7),3,5,12,14-hexaen-8-yl)acetamide] | 39.8 to 100 nM | 39.8 to 100 nM |
| COc1ccc(NC(=O)CN2C(=O)C(C)c3ncccc3-c3c2cc(C)nc3F)cc1F (stereo not drawn) [#131, 2-(3-fluoro-5,10-dimethyl-9-oxo-4,8,12-triazatricyclo[9.4.0.0^2.7]pentadeca-1(11),2(7),3,5,12,14-hexaen-8-yl)-N-(3-fluoro-4-methoxy-phenyl)acetamide] | 39.8 to 100 nM | 15.8 to 39.8 nM |
| Cc1cc2c(c(F)n1)-c1cccnc1C(C)C(=O)N2CC(=O)Nc1ccc(C(F)F)cc1 (stereo not drawn) [#132, N-[4-(difluoromethyl)phenyl]-2-(3-fluoro-5,10-dimethyl-9-oxo-4,8,12-triazatricyclo[9.4.0.0^2,7]pentadeca-1(11),2(7),3,5,12,14-hexaen-8-yl)acetamide] | 39.8 to 100 nM | < 15.8 nM |
| Cc1cc2c(c(F)n1)-c1cccnc1C(C)C(=O)N2CC(=O)Nc1ccc(C#N)c(F)c1 (stereo not drawn) [#133, N-(4-cyano-3-fluoro-phenyl)-2-(3-fluoro-5,10-dimethyl-9-oxo-4,8,12-triazatricyclo[9.4.0.0^2,7]pentadeca-1(11),2(7),3,5,12,14-hexaen-8-yl)acetamide] | 39.8 to 100 nM | 39.8 to 100 nM |

Results, then the molecule that gave them:

| IC50 (system Xc^− [1]) | IC50 (system Xc^− [2]) | Compound |
| --- | --- | --- |
| 39.8 to 100 nM | < 15.8 nM | Cc1cc2c(c(F)n1)-c1ccccc1CC(=O)N2CC(=O)Nc1ccc(C(F)F)cc1 [#134, N-[4-(difluoromethyl)phenyl]-2-(1-fluoro-3-methyl-6-oxo-7H-pyrido[4,3-d][3]benzazepin-5-yl)acetamide] |
| 15.8 to 39.8 nM | < 15.8 nM | Cc1cc2c(c(F)n1)-c1cccnc1C(C)C(=O)N2CC(=O)Nc1ccc(C2CC2)c(F)c1 (stereo not drawn) [#135, N-(4-cyclopropyl-3-fluoro-phenyl)-2-(3-fluoro-5,10-dimethyl-9-oxo-4,8,12-triazatricyclo[9.4.0.0^2,7]pentadeca-1(11),2(7),3,5,12,14-hexaen-8-yl)acetamide] |
| 100 to 501 nM | 15.8 to 39.8 nM | Cc1cc2c(c(F)n1)-c1cccnc1C(C)C(=O)N2CC(=O)Nc1ccc(OC(F)F)c(F)c1 (stereo not drawn) [#136, N-[4-(difluoromethoxy)-3-fluoro-phenyl]-2-(3-fluoro-5,10-dimethyl-9-oxo-4,8,12-triazatricyclo[9.4.0.0^2,7]pentadeca-1(11),2(7),3,5,12,14-hexaen-8-yl)acetamide] |
| 15.8 to 39.8 nM | 15.8 to 39.8 nM | Cc1cc2c(c(F)n1)-c1cccnc1[C@@H](C)C(=O)N2CC(=O)Nc1ccc(C(F)(F)F)c(C)c1 [#137, 2-[(10R)-3-fluoro-5,10-dimethyl-9-oxo-4,8,12-triazatricyclo[9.4.0.0^2,7]pentadeca-1(11),2(7),3,5,12,14-hexaen-8-yl]-N-[3-methyl-4-(trifluoromethyl)phenyl]acetamide] |
| < 15.8 nM | < 15.8 nM | Cc1cc2c(c(F)n1)-c1cccnc1[C@@H](C)C(=O)N2CC(=O)Nc1ccc(I)cc1 [#138, 2-[(10R)-3-fluoro-5,10-dimethyl-9-oxo-4,8,12-triazatricyclo[9.4.0^2,7]pentadeca-1(11),2(7),3,5,12,14-hexaen-8-yl]-N-(4-iodophenyl)acetamide] |
| 15.8 to 39.8 nM | 15.8 to 39.8 nM | Cc1cc2c(c(F)n1)-c1cccnc1[C@@H](C)C(=O)N2CC(=O)Nc1ccc(OC(F)F)cc1 [#139, N-[4-(difluoromethoxy)phenyl]-2-[(10R)-3-fluoro-5,10-dimethyl-9-oxo-4,8,12-triazatricyclo[9.4.0.0^2,7]pentadeca-1(11),2(7),3,5,12,14-hexaen-8-yl]acetamide] |
| 15.8 to 39.8 nM | 15.8 to 39.8 nM | Cc1cc2c(c(F)n1)-c1cccnc1[C@@H](C)C(=O)N2CC(=O)Nc1ccc(F)c(F)c1 [#140, N-(3,4-difluorophenyl)-2-[(10R)-3-fluoro-5,10-dimethyl-9-oxo-4,8,12-triazatricyclo[9.4.0.0^2,7]pentadeca-1(11),2(7),3,5,12,14-hexaen-8-yl]acetamide] |
| 15.8 to 39.8 nM | 15.8 to 39.8 nM | Cc1cc2c(c(F)n1)-c1cccnc1[C@@H](C)C(=O)N2CC(=O)Nc1ccc2c(cnn2C)c1 [#141, 2-[(10R)-3-fluoro-5,10-dimethyl-9-oxo-4,8,12-triazatricyclo[9.4.0.0^2,7]pentadeca-1(11),2(7),3,5,12,14-hexaen-8-yl]-N-(1-methylindazol-5-yl)acetamide] |
| 15.8 to 39.8 nM | < 15.8 nM | Cc1cc2c(c(F)n1)-c1cccnc1[C@@H](C)C(=O)N2CC(=O)Nc1ccc(C2CC2)cc1 [#142, N-(4-cyclopropylphenyl)-2-[(10R)-3-fluoro-5,10-dimethyl-9-oxo-4,8,12-triazatricyclo[9.4.0.0^2,7]pentadeca-1(11),2(7),3,5,12,14-hexaen-8-yl]acetamide] |
| 15.8 to 39.8 nM | < 15.8 nM | Cc1cc2c(c(F)n1)-c1cccnc1[C@@H](C)C(=O)N2CC(=O)Nc1ccc(C(F)(F)F)c(F)c1 [#143, 2-[(10R)-3-fluoro-5,10-dimethyl-9-oxo-4,8,12-triazatricyclo[9.4.0.0^2,7]pentadeca-1(11),2(7),3,5,12,14-hexaen-8-yl]-N-[3-fluoro-4-(trifluoromethyl)phenyl]acetamide] |
| 15.8 to 39.8 nM | < 15.8 nM | Cc1cc2c(c(F)n1)-c1cccnc1[C@@H](C)C(=O)N2CC(=O)Nc1ccc(C2CC2)c(F)c1 [#144, N-(4-cyclopropyl-3-fluoro-phenyl)-2-[(10R)-3-fluoro-5,10-dimethyl-9-oxo-4,8,12-triazatricyclo[9.4.0.0^2,7]pentadeca-1(11),2(7),3,5,12,14-hexaen-8-yl]acetamide] |
